Data taken from PubChem BioAssay AID330 (DTP/NCI, 2004).
Values joined by “and” are separate entries in the source; they are usually repeats but may differ in a detail not shown here. Identical values can stand only once. Inconclusive results and toxic doses are left out.

System: P388 leukemia ip, CD2F1 mice, survival T/C
Experiment: NCI In Vivo Anticancer Drug Screen. Data for tumor model P388 Leukemia (intraperitoneal) in CD2F1 (CDF1) mice
Settings: endpoint: median survival time, higher = longer survival
Summary of the method: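 Mice carrying the transplanted tumor received test compound or vehicle. Survival was recorded in each group, and the value is the treated-group measurement divided by that of the vehicle-treated control group.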

[1] = dose: 60.0 mg/kg/injection, schedule: Q01DX005 (ip), vehicle: Klucel (hydroxypropylcellulose) (HPC)
[2] = dose: 120.0 mg/kg/injection, schedule: Q01DX005 (ip), vehicle: Klucel (hydroxypropylcellulose) (HPC)
[3] = dose: 240.0 mg/kg/injection, schedule: Q01DX005 (ip), vehicle: Klucel (hydroxypropylcellulose) (HPC)
[4] = dose: 50.0 mg/kg/injection, schedule: Q01DX005 (ip), vehicle: Klucel (hydroxypropylcellulose) (HPC)
[5] = dose: 100.0 mg/kg/injection, schedule: Q01DX005 (ip), vehicle: Klucel (hydroxypropylcellulose) (HPC)
[6] = dose: 50.0 mg/kg/injection, schedule: Q01DX005 (ip), vehicle: saline with Tween-80
[7] = dose: 100.0 mg/kg/injection, schedule: Q01DX005 (ip), vehicle: saline with Tween-80
[8] = dose: 200.0 mg/kg/injection, schedule: Q01DX005 (ip), vehicle: saline with Tween-80
[9] = dose: 60.0 mg/kg/injection, schedule: Q01DX005 (ip), vehicle: saline with Tween-80
[10] = dose: 120.0 mg/kg/injection, schedule: Q01DX005 (ip), vehicle: saline with Tween-80
[11] = dose: 240.0 mg/kg/injection, schedule: Q01DX005 (ip), vehicle: saline with Tween-80
[12] = dose: 100.0 mg/kg/injection, schedule: Q01DX009 (ip), vehicle: saline with Tween-80
[13] = dose: 200.0 mg/kg/injection, schedule: Q01DX009 (ip), vehicle: saline with Tween-80
[14] = dose: 12.5 mg/kg/injection, schedule: Q01DX009 (ip), vehicle: Klucel (hydroxypropylcellulose) (HPC)
[15] = dose: 25.0 mg/kg/injection, schedule: Q01DX009 (ip), vehicle: Klucel (hydroxypropylcellulose) (HPC)
[16] = dose: 50.0 mg/kg/injection, schedule: Q01DX009 (ip), vehicle: Klucel (hydroxypropylcellulose) (HPC)

For `Cc1cc2c(cc1C)NC1=C(N2)OC(c2ccc(C3OC4=C(Nc5cc(C)c(C)cc5N4)C3=O)cc2)C1=O` (stereo not given), the T/C [1] was 92 % of control, the T/C [2] was 92 % of control and the T/C [3] was 93 % of control.
With `CC1=C(C)C(N2CCOCC2)CS(=O)(=O)O1` (stereo not given) the T/C [4] was 109 % of control and the T/C [5] was 101 % of control.
In the case of `CN(C)N1C(=O)C2C3C=CC(O3)C2C1=O` (stereo not given), the T/C (dose: 50.0 mg/kg/injection, schedule: Q01DX005 (ip), vehicle: saline) is reported as 104 % of control, the T/C (dose: 100.0 mg/kg/injection, schedule: Q01DX005 (ip), vehicle: saline) is reported as 109 % of control and the T/C (dose: 200.0 mg/kg/injection, schedule: Q01DX005 (ip), vehicle: saline) is reported as 100 % of control.
In the case of `COc1cc2c(c(O)c1OC)-c1c(cc(OC)c(OC)c1OC)CC(C)C(C)C2` (stereo not given), the T/C (dose: 11.25 mg/kg/injection, schedule: Q01DX009 (ip), vehicle: saline + alcohol) is reported as 100 % of control and 95 % of control, the T/C (dose: 11.3 mg/kg/injection, schedule: Q01DX009 (ip), vehicle: saline + alcohol) is reported as 106 % of control and the T/C (dose: 22.5 mg/kg/injection, schedule: Q01DX009 (ip), vehicle: saline + alcohol) is reported as 101 % of control and 115 % of control and 96 % of control. The T/C (dose: 45.0 mg/kg/injection, schedule: Q01DX009 (ip), vehicle: saline + alcohol) was 106 % of control and 121 % of control and 97 % of control, the T/C (dose: 90.0 mg/kg/injection, schedule: Q01DX009 (ip), vehicle: saline + alcohol) was 113 % of control and 121 % of control and 92 % of control and the T/C (dose: 180.0 mg/kg/injection, schedule: Q01DX009 (ip), vehicle: saline + alcohol) was 96 % of control.
`CCCCCCN(CCCCCC)CC(O)c1cccc2ccc(Cl)cc12` (stereo not given) was tested, and the T/C [6] was 90 % of control, the T/C [7] was 95 % of control and the T/C [8] was 109 % of control.
`CCc1nc(-c2ccccc2)nc2c1nc(Cc1ccccc1)n2Nc1ccccc1` was tested, and the T/C (dose: 100.0 mg/kg/injection, schedule: Q01DX001 (ip), vehicle: Klucel (hydroxypropylcellulose) (HPC)) was 88 % of control.
With `COc1ccc(C2=C(C#N)C(=O)OCCN2C)cc1` the T/C [9] was 94 % of control, the T/C [10] was 100 % of control and the T/C [11] was 101 % of control.
`CNC(=O)OCc1c(COC(=O)NC)c(-c2ccccc2)n(C)c1C` was tested, and the T/C (dose: 50.0 mg/kg/injection, schedule: Q01DX009 (ip), vehicle: distilled water + Tween-80) was 90 % of control.
With `COc1cccc(C(c2cc3c(cc2O)OCO3)N2CCOCC2)c1O` (stereo not given) the T/C [9] was 114 % of control (2×) and 116 % of control, the T/C [10] was 108 % of control and 116 % of control and 122 % of control and the T/C [11] was 109 % of control and 112 % of control. The T/C (dose: 480.0 mg/kg/injection, schedule: Q01DX005 (ip), vehicle: saline with Tween-80) was 118 % of control.
For `COC(=O)CC(=O)c1ccc(OC(C)C)cc1`, the T/C [12] was 100 % of control, the T/C (dose: 100.0 mg/kg/injection, schedule: Q04DX003 (ip), vehicle: saline with Tween-80) was 100 % of control and the T/C [13] was 100 % of control. For the same compound, the T/C (dose: 200.0 mg/kg/injection, schedule: Q04DX003 (ip), vehicle: saline with Tween-80) was 95 % of control, the T/C (dose: 400.0 mg/kg/injection, schedule: Q01DX009 (ip), vehicle: saline with Tween-80) was 100 % of control and the T/C (dose: 400.0 mg/kg/injection, schedule: Q04DX003 (ip), vehicle: saline with Tween-80) was 100 % of control.
For `O=C(O)C1C2OC3C(OC(=O)C31)C2Br` (stereo not given), the T/C [6] was 100 % of control, the T/C [7] was 94 % of control and the T/C [8] was 103 % of control.
In the case of `COC1(OC)OC(c2ccccc2)=C(C#N)C(c2ccccc2)C1(OC)OC` (stereo not given), the T/C [1] is reported as 102 % of control, the T/C [2] is reported as 100 % of control and the T/C [3] is reported as 96 % of control.
`CSC(=S)n1nc(-c2ccccc2)c(N=Nc2cccc(C)c2C)c1-c1ccccc1` was tested, and the T/C (dose: 100.0 mg/kg/injection, schedule: Q04DX002 (ip), vehicle: saline with Tween-80) was 90 % of control, the T/C (dose: 200.0 mg/kg/injection, schedule: Q04DX002 (ip), vehicle: saline with Tween-80) was 89 % of control and the T/C (dose: 400.0 mg/kg/injection, schedule: Q04DX002 (ip), vehicle: saline with Tween-80) was 102 % of control.
For `CNC(=O)OCc1c(COC(=O)NC)c(-c2ccc(Cl)c(Cl)c2)n2c1CCC2`, the T/C [14] was 153 % of control, the T/C [15] was 160 % of control and the T/C [16] was 155 % of control. For the same compound, the T/C (dose: 100.0 mg/kg/injection, schedule: Q01DX009 (ip), vehicle: Klucel (hydroxypropylcellulose) (HPC)) was 188 % of control.
`Cc1ccccc1C1NC(c2ccccc2C)C2CCCC1C2=O` (stereo not given) was tested, and the T/C (dose: 100.0 mg/kg/injection, schedule: Q04DX003 (ip), vehicle: saline) was 89 % of control, the T/C (dose: 200.0 mg/kg/injection, schedule: Q04DX003 (ip), vehicle: saline) was 96 % of control and the T/C (dose: 400.0 mg/kg/injection, schedule: Q04DX003 (ip), vehicle: saline) was 93 % of control.
For `Oc1cc2c(cc1O)CN1CCc3cc(O)c(O)cc3C1C2` (stereo not given), the T/C (dose: 100.0 mg/kg/injection, schedule: Q01DX009 (ip), vehicle: saline) was 114 % of control, the T/C (dose: 200.0 mg/kg/injection, schedule: Q01DX009 (ip), vehicle: saline) was 109 % of control and the T/C (dose: 400.0 mg/kg/injection, schedule: Q01DX009 (ip), vehicle: saline) was 101 % of control.
In the case of `CC(=O)C1=CCC2C3=CCC4=CC(O)[C@@H](O)C[C@]4(C)C3C[C@@H](O)[C@]12C` (stereo not given in full), the T/C (dose: 0.94 mg/kg/injection, schedule: Q01DX005 (ip), vehicle: saline + alcohol) is reported as 100 % of control, the T/C (dose: 1.88 mg/kg/injection, schedule: Q01DX005 (ip), vehicle: saline + alcohol) is reported as 108 % of control and the T/C (dose: 3.75 mg/kg/injection, schedule: Q01DX005 (ip), vehicle: saline + alcohol) is reported as 108 % of control. The T/C (dose: 6.25 mg/kg/injection, schedule: Q01DX005 (ip), vehicle: saline + Tween-80 + alcohol) was 100 % of control, the T/C (dose: 7.5 mg/kg/injection, schedule: Q01DX005 (ip), vehicle: saline + alcohol) was 104 % of control and the T/C (dose: 12.5 mg/kg/injection, schedule: Q01DX005 (ip), vehicle: saline + Tween-80 + alcohol) was 112 % of control. The T/C (dose: 25.0 mg/kg/injection, schedule: Q01DX005 (ip), vehicle: saline + Tween-80 + alcohol) was 109 % of control and the T/C (dose: 50.0 mg/kg/injection, schedule: Q01DX005 (ip), vehicle: saline + Tween-80 + alcohol) was 118 % of control.
For `NC(N)=NNC(O)(C(=O)O)C(=O)O`, the T/C [4] was 100 % of control, the T/C [5] was 96 % of control and the T/C (dose: 200.0 mg/kg/injection, schedule: Q01DX005 (ip), vehicle: Klucel (hydroxypropylcellulose) (HPC)) was 96 % of control.
With `C1=NC2=C(CCc3ccccc32)C2=NCCN12` the T/C (dose: 10.0 mg/kg/injection, schedule: Q04DX002 (ip), vehicle: saline with Tween-80) was 100 % of control, the T/C (dose: 20.0 mg/kg/injection, schedule: Q04DX002 (ip), vehicle: saline with Tween-80) was 96 % of control and the T/C (dose: 40.0 mg/kg/injection, schedule: Q04DX002 (ip), vehicle: saline with Tween-80) was 100 % of control.
With `O=C1NCCCC1(Cl)Cl` the T/C [14] was 100 % of control, the T/C [15] was 104 % of control and the T/C [16] was 94 % of control.
With `CC(C#N)C(N)=O` (stereo not given) the T/C (dose: 12.5 mg/kg/injection, schedule: Q04DX003 (ip), vehicle: saline) was 100 % of control, the T/C (dose: 25.0 mg/kg/injection, schedule: Q04DX003 (ip), vehicle: saline) was 105 % of control and the T/C (dose: 50.0 mg/kg/injection, schedule: Q04DX003 (ip), vehicle: saline) was 110 % of control.
For `CC(=O)CC(=O)CCCCC(=O)O`, the T/C (dose: 50.0 mg/kg/injection, schedule: Q01DX009 (ip), vehicle: saline with Tween-80) was 112 % of control, the T/C [12] was 112 % of control and the T/C [13] was 104 % of control.
In the case of `c1csc(C2=NCCC2)c1`, the T/C [6] is reported as 100 % of control, the T/C [7] is reported as 102 % of control and the T/C [8] is reported as 102 % of control.
With `C=C1C(=O)C23C(O)CC4C(C)(C)[C@@H](OC(C)=O)CCC4(C)[C@]2(O)CCC1[C@@H]3O` (stereo not given in full) the T/C (dose: 5.0 mg/kg/injection, schedule: Q01DX005 (ip), vehicle: Klucel (hydroxypropylcellulose) (HPC)) was 106 % of control, the T/C (dose: 10.0 mg/kg/injection, schedule: Q01DX005 (ip), vehicle: Klucel (hydroxypropylcellulose) (HPC)) was 110 % of control and the T/C (dose: 20.0 mg/kg/injection, schedule: Q01DX005 (ip), vehicle: Klucel (hydroxypropylcellulose) (HPC)) was 112 % of control. The T/C (dose: 40.0 mg/kg/injection, schedule: Q01DX005 (ip), vehicle: Klucel (hydroxypropylcellulose) (HPC)) was 114 % of control.
In the case of `CN(C)CCNc1ccc(CO)c2sc3ccc(O)cc3c(=O)c12`, the T/C (dose: 25.0 mg/kg/injection, schedule: Q01DX005 (ip), vehicle: saline with Tween-80) is reported as 160 % of control and 162 % of control, the T/C [6] is reported as 173 % of control and 175 % of control and the T/C [7] is reported as 190 % of control and 194 % of control. The T/C [8] was 222 % of control.
